Test results as given in ChEMBL document CHEMBL1201862, “PubChem BioAssay data set” (2004).
Activity calls are given as the source filed them. Cut-off read from the data, not from the text of the source, for most assays here: actives have a measured IC50 and inactives only a lower limit.

Assays:
DNA topoisomerase = DNA topoisomerase (Yersinia pestis, UniProt A0A2S9PM60); assay: Yersinia topoisomerase I cleavage product accumulation – biochemical, cherry-pick, dose response (AID 588525)
[1] = molecular target: G-protein coupled receptor 55 (Homo sapiens, UniProt Q9Y2T6); assay: selective activators of receptor GPR55 – imaging, U2OS cells, beta-arrestin-GFP redistribution, primary screen (AID 1961); assay type: functional
Sequence of G-protein coupled receptor 55 (Q9Y2T6 whole entry): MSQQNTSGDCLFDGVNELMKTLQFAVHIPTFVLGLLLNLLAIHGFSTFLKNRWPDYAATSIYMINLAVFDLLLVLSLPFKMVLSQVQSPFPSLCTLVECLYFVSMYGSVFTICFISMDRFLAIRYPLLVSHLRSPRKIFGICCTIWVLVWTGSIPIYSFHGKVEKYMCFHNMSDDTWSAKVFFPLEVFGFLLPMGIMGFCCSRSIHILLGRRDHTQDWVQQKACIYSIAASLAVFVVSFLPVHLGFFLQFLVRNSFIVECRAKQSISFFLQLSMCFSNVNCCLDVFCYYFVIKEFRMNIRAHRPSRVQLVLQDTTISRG

[2] = molecular target: T1, Acyl-homoserine lactone acylase PvdQ (Pseudomonas aeruginosa (strain LESB58), UniProt Q9I194); assay: PvdQ acylase enzyme activity blockers – biochemical, fluorescence, plate reader and imaging, cherry-picks, dose response (AID 493231)
T1 sequence (Q9I194 whole entry): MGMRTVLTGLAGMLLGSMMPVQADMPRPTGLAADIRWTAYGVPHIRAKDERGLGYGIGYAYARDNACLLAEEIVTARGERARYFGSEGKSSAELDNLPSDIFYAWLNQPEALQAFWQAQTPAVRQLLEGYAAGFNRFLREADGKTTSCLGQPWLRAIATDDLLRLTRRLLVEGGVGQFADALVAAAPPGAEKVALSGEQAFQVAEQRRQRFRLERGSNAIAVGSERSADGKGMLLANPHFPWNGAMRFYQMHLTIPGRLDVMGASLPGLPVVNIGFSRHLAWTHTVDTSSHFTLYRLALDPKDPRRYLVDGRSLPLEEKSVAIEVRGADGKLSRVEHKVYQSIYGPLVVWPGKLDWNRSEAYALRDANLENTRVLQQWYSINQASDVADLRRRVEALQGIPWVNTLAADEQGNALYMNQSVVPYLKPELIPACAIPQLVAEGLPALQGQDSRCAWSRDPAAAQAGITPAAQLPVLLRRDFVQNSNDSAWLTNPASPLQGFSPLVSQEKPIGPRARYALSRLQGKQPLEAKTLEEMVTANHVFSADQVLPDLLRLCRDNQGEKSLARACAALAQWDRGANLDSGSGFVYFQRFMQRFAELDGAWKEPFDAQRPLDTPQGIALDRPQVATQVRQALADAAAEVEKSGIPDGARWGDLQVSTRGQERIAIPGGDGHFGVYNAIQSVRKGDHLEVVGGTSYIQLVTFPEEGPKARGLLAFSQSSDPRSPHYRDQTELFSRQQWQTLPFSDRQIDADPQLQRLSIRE

[3] = molecular target: Neurotensin receptor type 1 (Homo sapiens, UniProt P30989); assay type: functional;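 note: Image-based confirmatory dose-response assay measuring agonist activity at NTR1; NTR1-expressing U2OS osteosarcoma cells imaged for beta-arrestin GFP spot formation; agonist potency where compounds increase beta-arrestin recruitment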
Sequence of Neurotensin receptor type 1 (P30989 whole entry): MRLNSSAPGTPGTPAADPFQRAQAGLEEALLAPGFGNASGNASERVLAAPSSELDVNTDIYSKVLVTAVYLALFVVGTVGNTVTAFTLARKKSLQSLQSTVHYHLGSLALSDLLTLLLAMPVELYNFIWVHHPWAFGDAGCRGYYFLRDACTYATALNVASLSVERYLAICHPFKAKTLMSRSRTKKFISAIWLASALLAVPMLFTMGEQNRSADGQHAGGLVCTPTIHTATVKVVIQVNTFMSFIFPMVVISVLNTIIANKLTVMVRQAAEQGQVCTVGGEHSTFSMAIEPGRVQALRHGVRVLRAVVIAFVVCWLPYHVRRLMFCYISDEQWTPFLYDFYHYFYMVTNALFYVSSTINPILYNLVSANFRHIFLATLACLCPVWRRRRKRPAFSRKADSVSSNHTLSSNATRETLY

HeLa = assay: toxicity to human HeLa cells – cell-based, 48 h, plate reader, cherry-picks, cytotoxicity control, dose response (AID 504942); assay type: functional
[4] = molecular target: T2, Hepatocyte nuclear factor 4-alpha (Homo sapiens, UniProt P41235); assay type: functional, cell-based;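 note: biochemical luminescence-based dose-response counterscreen measuring inhibition of HNF4 dimerization, run alongside a screen for blockers of ABHD5–perilipin-5 interaction; split luciferase complementation of HNF4 fusion proteins in cell lysate measuring dimerization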
T2 sequence (P41235 whole entry): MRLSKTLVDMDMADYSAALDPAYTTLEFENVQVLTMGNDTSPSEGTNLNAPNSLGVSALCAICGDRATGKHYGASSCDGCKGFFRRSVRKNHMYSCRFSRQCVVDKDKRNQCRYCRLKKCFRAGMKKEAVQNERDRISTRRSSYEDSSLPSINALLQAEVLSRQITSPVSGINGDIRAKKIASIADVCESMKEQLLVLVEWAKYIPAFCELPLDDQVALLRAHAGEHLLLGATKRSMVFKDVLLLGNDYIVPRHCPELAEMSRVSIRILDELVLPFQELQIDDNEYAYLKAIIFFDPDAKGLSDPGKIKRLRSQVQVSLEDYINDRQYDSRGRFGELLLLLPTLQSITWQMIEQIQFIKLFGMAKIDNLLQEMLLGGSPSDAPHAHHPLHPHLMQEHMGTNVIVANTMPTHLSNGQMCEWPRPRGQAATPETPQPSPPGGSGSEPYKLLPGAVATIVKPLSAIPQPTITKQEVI

[5] = molecular target: Latent membrane protein 1 (Human herpesvirus 4 (strain B95-8), UniProt P03230); assay: LMP1 TES1 pathway selectivity over dsRED control – imaging, HEK293T, dual-color eGFP/dsRED, cherry-picks, selectivity assay for LMP1 NF-kB inhibitor project, dose response (AID 588398); assay type: functional, cell-based
Sequence of Latent membrane protein 1 (P03230 whole entry): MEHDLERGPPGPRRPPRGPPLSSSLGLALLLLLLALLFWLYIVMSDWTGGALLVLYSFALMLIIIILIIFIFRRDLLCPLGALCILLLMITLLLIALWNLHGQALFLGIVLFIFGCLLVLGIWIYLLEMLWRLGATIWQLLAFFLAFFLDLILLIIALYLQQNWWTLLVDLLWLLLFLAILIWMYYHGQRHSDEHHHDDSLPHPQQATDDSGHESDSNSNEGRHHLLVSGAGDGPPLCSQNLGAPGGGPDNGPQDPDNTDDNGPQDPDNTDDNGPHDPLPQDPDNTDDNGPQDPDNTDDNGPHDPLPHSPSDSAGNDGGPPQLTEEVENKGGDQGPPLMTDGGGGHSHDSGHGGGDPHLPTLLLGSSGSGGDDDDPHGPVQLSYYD

[6] = molecular target: T3, Sentrin-specific protease 8 (Homo sapiens, UniProt Q96LD8); assay: inhibition of human SENP8 cleavage activity – biochemical, luminescence, SAR follow-up (AID 504501); assay type: functional
T3 sequence (Q96LD8 whole entry): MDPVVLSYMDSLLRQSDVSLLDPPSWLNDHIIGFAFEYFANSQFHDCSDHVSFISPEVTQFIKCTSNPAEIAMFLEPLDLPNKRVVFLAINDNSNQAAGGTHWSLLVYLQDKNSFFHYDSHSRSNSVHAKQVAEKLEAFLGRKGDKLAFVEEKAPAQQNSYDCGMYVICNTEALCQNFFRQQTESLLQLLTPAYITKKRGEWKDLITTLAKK

Caspase-3 [7] = molecular target: T4, Caspase-3 (Homo sapiens, UniProt P42574); assay: inhibition of recombinant caspase-3 activity – biochemical, luminescence, set 2, selectivity assay for SENP protease inhibitor project, SAR follow-up (AID 588599); assay type: functional
T4 sequence (P42574 whole entry): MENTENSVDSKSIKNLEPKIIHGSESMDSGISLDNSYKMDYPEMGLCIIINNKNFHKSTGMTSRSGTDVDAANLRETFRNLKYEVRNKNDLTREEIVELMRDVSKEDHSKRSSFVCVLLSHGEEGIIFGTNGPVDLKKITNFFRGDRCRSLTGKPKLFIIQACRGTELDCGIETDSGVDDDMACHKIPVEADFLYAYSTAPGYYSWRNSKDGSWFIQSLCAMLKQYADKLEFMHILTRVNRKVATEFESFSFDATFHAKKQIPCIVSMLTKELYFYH

[8] = molecular target: T3, Sentrin-specific protease 8; assay: inhibition of sentrin protease 8 – biochemical, luminescence, set 2, SAR follow-up (AID 588601); assay type: functional
Caspase-3 [9] = molecular target: T4, Caspase-3; assay: SAR Analysis of small molecule inhibitors of Sentrin-specific proteases (SENPs) using a Caspase-3 Selectivity assay. [Related pubchem assays (depositor defined):AID2540, AID2599, AID434973, AID489001]; assay type: functional
[10] = molecular target: T5, Sentrin-specific protease 7 (Homo sapiens, UniProt Q9BQF6); assay: inhibition of human SENP7 cleavage activity – biochemical, luminescence, set 2, SAR follow-up (AID 588600); assay type: functional
T5 sequence (Q9BQF6 whole entry): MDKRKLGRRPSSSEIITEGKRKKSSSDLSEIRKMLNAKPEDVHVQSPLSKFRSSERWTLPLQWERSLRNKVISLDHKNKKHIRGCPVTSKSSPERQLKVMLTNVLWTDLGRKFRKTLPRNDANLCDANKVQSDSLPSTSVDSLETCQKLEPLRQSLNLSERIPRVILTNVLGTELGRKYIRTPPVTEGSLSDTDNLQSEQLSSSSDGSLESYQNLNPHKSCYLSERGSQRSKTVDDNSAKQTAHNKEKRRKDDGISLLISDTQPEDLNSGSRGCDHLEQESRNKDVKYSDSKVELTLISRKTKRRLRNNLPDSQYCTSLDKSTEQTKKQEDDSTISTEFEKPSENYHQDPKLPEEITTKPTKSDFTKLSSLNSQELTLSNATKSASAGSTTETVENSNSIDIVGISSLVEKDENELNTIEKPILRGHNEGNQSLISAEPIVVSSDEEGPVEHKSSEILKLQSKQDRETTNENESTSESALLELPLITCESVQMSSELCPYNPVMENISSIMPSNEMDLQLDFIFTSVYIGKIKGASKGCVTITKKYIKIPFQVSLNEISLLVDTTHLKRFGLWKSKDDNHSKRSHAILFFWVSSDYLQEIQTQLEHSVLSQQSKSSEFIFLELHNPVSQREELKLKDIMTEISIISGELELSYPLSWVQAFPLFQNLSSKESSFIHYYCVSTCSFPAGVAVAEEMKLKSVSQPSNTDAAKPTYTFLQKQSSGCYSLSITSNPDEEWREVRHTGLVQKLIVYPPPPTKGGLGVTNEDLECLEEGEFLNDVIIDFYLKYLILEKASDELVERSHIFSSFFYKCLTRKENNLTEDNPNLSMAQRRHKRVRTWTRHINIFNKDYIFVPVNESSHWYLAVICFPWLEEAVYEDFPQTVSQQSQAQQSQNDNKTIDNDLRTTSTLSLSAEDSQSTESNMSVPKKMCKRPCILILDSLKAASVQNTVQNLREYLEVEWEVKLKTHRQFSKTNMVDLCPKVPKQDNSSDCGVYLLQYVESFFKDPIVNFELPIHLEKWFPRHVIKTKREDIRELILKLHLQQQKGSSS

[11] = molecular target: T6, Sentrin-specific protease 6 (Homo sapiens, UniProt Q9GZR1); assay: SAR Analysis of small molecule inhibitors of Sentrin-specific protease 6 (SENP6) using a Luminescent assay. [Related pubchem assays (depositor defined):AID2582, AID2599]; assay type: functional
T6 sequence (Q9GZR1 whole entry): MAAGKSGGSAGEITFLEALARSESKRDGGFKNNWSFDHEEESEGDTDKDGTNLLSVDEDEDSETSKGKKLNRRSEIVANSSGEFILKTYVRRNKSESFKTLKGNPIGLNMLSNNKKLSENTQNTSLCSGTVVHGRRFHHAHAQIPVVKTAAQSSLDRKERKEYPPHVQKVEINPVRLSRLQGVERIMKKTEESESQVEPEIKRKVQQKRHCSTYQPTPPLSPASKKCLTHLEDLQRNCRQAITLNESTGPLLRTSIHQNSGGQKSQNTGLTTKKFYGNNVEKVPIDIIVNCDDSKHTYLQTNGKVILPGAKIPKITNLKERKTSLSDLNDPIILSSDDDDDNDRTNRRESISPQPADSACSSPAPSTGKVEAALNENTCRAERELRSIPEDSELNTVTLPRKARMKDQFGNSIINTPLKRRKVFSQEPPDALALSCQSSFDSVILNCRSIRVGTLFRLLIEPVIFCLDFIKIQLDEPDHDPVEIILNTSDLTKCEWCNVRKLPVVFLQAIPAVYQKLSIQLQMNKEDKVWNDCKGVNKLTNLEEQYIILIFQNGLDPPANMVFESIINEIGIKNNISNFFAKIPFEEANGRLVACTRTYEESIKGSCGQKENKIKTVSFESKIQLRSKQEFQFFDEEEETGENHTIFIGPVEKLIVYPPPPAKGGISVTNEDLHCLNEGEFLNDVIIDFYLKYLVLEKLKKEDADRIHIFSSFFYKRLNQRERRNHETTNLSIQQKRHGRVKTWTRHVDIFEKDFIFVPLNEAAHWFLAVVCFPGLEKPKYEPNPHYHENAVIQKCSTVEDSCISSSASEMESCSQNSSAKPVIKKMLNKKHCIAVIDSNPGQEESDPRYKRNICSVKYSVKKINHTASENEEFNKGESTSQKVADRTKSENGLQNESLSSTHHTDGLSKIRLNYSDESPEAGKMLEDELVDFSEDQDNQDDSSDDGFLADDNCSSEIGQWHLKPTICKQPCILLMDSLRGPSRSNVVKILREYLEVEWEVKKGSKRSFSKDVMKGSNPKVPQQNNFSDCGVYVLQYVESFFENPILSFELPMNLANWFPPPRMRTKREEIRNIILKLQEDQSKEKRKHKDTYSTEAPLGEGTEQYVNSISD

[12] = molecular target: T6, Sentrin-specific protease 6; assay: inhibition of human SENP6 catalytic domain – biochemical, luminescence, set 2, SAR follow-up (AID 588598); assay type: functional
[13] = molecular target: T5, Sentrin-specific protease 7; assay: inhibition of human SENP7 cleavage activity – biochemical, luminescence, SAR follow-up (AID 504497); assay type: functional

Sequence of DNA topoisomerase (A0A2S9PM60 whole entry): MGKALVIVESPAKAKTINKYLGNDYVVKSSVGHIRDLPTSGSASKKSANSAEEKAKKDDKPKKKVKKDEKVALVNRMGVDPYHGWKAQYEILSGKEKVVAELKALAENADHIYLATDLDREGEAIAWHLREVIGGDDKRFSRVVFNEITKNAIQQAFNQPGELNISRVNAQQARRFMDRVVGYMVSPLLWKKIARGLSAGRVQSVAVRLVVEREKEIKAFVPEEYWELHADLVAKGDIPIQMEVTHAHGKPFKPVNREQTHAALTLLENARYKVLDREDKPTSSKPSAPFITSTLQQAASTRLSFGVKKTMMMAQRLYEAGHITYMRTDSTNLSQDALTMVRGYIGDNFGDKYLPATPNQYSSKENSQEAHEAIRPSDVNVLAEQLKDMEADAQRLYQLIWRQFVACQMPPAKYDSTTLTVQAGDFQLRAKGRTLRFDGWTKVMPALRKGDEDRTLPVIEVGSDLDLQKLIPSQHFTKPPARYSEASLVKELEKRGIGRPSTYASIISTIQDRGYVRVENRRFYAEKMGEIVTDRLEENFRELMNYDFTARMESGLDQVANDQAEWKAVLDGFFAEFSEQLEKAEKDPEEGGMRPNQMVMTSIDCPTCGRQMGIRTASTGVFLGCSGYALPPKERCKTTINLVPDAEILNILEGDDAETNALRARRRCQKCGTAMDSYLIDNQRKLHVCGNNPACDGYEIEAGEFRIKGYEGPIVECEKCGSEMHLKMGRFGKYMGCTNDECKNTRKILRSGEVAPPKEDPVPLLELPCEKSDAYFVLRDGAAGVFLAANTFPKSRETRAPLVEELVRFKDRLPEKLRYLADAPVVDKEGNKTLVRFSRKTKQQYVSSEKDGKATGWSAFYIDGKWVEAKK

CC(C)(C)c1ccc(OCCn2nc(C(=O)O)c3ccccc3c2=O)cc1
AC50 (DNA topoisomerase): 9120 nM (active)

O=CC1=C(c2ccccc2)Oc2ccccc2O1
EC50 [1]: 2280 nM (active)
AC50 [2]: 2140 nM (active)
EC50 [3]: 16000 nM (active)
AC50 (HeLa): 23900 nM (active)
IC50 [4]: 10400 nM (inactive)

O=C1N[C@@H](Cc2c[nH]c3ccccc23)COC(=O)[C@H](Cc2ccc(F)cc2)C/C=C\C[C@H]1CC(=O)N(CCO)Cc1ccccc1
AC50 [5]: 30100 nM (active)

O=C(Nc1nc2ccc(Cl)cc2s1)c1nccs1
IC50 [6]: 3500 nM (active)
IC50 (Caspase-3 [7]): 1980 nM (active)
IC50 [8]: 2380 nM (active)
IC50 (Caspase-3 [9]): 2400 nM (active)
IC50 [10]: 2900 nM (active)
IC50 [11]: 3200 nM (active)
IC50 [12]: 2890 nM (active)
IC50 [13]: 2500 nM (active)
